Earlier results on 4 compounds are cited in US9333174B2, “Use of simple amino acids to form porous particles” (Civitas Therapeutics, Inc., priority 1999, dated 2016).

For this data set the following is noted: hydrophobicity scale on which glycine has the value 0.5; value of the amino acid itself.
As for `N[C@@H](CCC(=O)O)C(=O)O` [Glutamate], the hydrophobicity is reported as 0.043. With `NCC(=O)O` [glycine], the hydrophobicity is 0.5. With `CC[C@H](C)[C@H](N)C(=O)O` [Isoleucine], the hydrophobicity is reported as 0.943.

Consider `N[C@@H](Cc1ccccc1)C(=O)O` [Phenylalanine], for which the hydrophobicity is 0.501.
